Reference: article PMC12189828, “Substitution of Proline Residues by 4-Fluoro-L-Proline Affects the Mechanism of the Proline-Rich Antimicrobial Peptide Api137” (Antibiotics, 2025)
Where a SMILES comes first, the peptide text is derived from it. [ ]: non-standard residue; d: D form. The star is where a group is joined. Orn(α-tetramethylguanidino) = CN(C)C(=N[C@@H](CCCN)C(=O)*)N(C)C; Pro(trans-4-F) = O=C(O)[C@@H]1C[C@@H](F)CN1; Pro(cis-4-F) = O=C(O)[C@@H]1C[C@H](F)CN1

Experiments:
[1] = system: E. coli RN31; test: Growth inhibition of E. coli RN31 during 90 min exponential growth phase; format: cell-based, Escherichia coli; details: for reduction of bacterial growth vs untreated control: E. coli RN31, 33% TSB, peptide 8 µg/mL, OD600, two biological replicates (n = 2)
Protocol: The following steps were performed on ice. Cells were harvested by centrifugation (4000× g, 4 °C, 25 min), washed with TICO buffer (20 mmol/L Hepes-KOH, pH 7.6, 6 mmol/L MgAc2, 30 mmol/L KAc), centrifuged (4000× g, 25 min, 4 °C), and stored at −80 °C. The cell pellet was suspended in TICO buffer (500 µL) and mixed with silica beads (zirconium glass pellets, 100 µm diameter; Carl Roth; Karlsruhe, Germany) to lyse the cells on a FastPrep-24^TM 5G (MP Biomedicals, Solon, OH, USA) using three disruption cycles (30 s, 6.0 m/s) interrupted by 1 min of incubation on ice after each cycle. Cell debris was removed by centrifugation (5000× g, 4 °C, 5 min), the supernatant was transferred to a new reaction tube, centrifuged (20,000× g, 4 °C, 20 min), the absorbance was recorded at 260 nm on a NanoPhotometer® NP80, and the sample was stored at −80 °C. […]

[2] = system: in vitro expression of sfGFP in the presence of RF1; test: In vitro transcription-translation (iTT) assay of sfGFP in the presence of RF1; format: biochemical; details: peptide 5 µmol/L, RF1, 37 °C, 2 h, fluorescence, normalized to absence of PrAMPs, n = 3
Protocol: The sfGFP expression analysis relied on the NEB PureExpress Delta RF123 Kit (New England Biolabs, Frankfurt, Germany). The DNA template encoding sfGFP with a UAG stop codon was amplified from the pY71sfGFP vector by PCR using the primers sfGFP fwd ([…]) and sfGFP rev ([…]). The release factor RF1 of the kit was diluted 50-fold (v/v) in 1× Pure System Buffer (PSB, 1 mol/L magnesium acetate, 0.5 mol/L K3PO4 (pH 7.3), 1 mol/L potassium glutamate, 1 mol/L NH4Cl, 0.5 mol/L CaCl2, 1 mol/L spermidine, 0.1 mol/L putrescine, 0.1 mol/L DTT). sfGFP expression was performed in a freshly prepared mixture of kit solution A (2 µL), kit solution B (1.5 µL), 50-fold diluted RF1 (0.5 µL), sfGFP template (0.1325 pmol, 35 ng) or water as control (0.25 µL), PSB (0.25 µL), and a PrAMP (50 or 0 µmol/L) dissolved in water (0.5 µL). The reaction mixture was transferred to a black 384-well plate (flat bottom, PS, 784900, Greiner Bio-One GmbH), covered with a lid, and incubated (37 °C, 2 h) in a microplate reader (Gemini EM, Molecular Devices, San Jose, CA, USA). Fluorescence was recorded every 10 min (λex = 485 nm, λem = 535 nm).

[3] = system: 50S subunit assembly / 70S ribosome in E. coli RN31; test: Ribosome profile analysis (RPA), sucrose gradient of E. coli RN31 lysate; format: cell-based, Escherichia coli; details: 90 min; for RPA [pre-50S formation]: E. coli RN31, 33% TSB, peptide 8 µg/mL, 5–25% sucrose gradient, n = 2 (Api137 n = 7)
Protocol: E. coli RN31 was grown in 33% TSB (37 °C, 200 rpm) from a starting OD600 of 0.05 to an OD600 of 0.2, measured on a NanoPhotometer® (NP80; Implen; Westlake Village, CA, USA), and divided into subcultures that were inoculated with a peptide ([…]) before being cultured for 90 min (37 °C, 200 rpm). The following steps were performed on ice. Cells were harvested by centrifugation (4000× g, 4 °C, 25 min), washed with TICO buffer (20 mmol/L Hepes-KOH, pH 7.6, 6 mmol/L MgAc2, 30 mmol/L KAc), centrifuged (4000× g, 25 min, 4 °C), and stored at −80 °C. The cell pellet was suspended in TICO buffer (500 µL) and mixed with silica beads (zirconium glass pellets, 100 µm diameter; Carl Roth; Karlsruhe, Germany) to lyse the cells on a FastPrep-24^TM 5G (MP Biomedicals, Solon, OH, USA) using three disruption cycles (30 s, 6.0 m/s) interrupted by 1 min of incubation on ice after each cycle. Cell debris was removed by centrifugation (5000× g, 4 °C, 5 min), the supernatant was transferred to a new reaction tube, centrifuged (20,000× g, 4 °C, 20 min), the absorbance was recorded at 260 nm on a NanoPhotometer® NP80, and the sample was stored at −80 °C.
A 5% (w/v) sucrose solution (6.5 mL) in TICO buffer containing 2-mercaptoethanol (4 mmol/L) was poured into an open-top centrifuge tube (13.2 mL, 14 × 89 mm, Beckman Coulter) and bottomed with a 25% (w/v) sucrose solution (6.5 mL) in TICO buffer containing 2-mercaptoethanol (4 mmol/L) using a cannula. The tube was sealed with parafilm and placed horizontally at 4 °C for 3 h and vertically at 4 °C for 30 min. A portion of the upper layer (550 µL) was replaced by lysate (500 µL, A260 = 30) and centrifuged using a swing-out rotor (SW 41 Ti, 52,500× g, 4 °C, 19 h) without a brake. The contents were transferred from bottom-up to obtain equal volumes in all wells of a black 96-well plate with a flat bottom (96 Well PP black Greiner Bio-One GmbH, Frickenhausen, Germany) using the Äkta Purifier 10 system, and absorbance was recorded at a wavelength of 254 nm. Fluorescence was measured in the plate using the PARADIGM at excitation (λex) and emission (λem) wavelengths of 485 nm and 535 nm for eGFP and 585 nm and 635 nm, respectively, for mCherry and normalized to the 70S ribosome peak (set to 100%).

SMILES | reduction of bacterial growth vs untreated control ([1]; 90 min) | Residual iTT (sfGFP expression relative to no PrAMP) [2] | RPA [pre-50S formation] [3] | 70S peak (area) relative to untreated control ([3]; E. coli RN31, peptide 8 µg/mL, sucrose gradient profile) | OD600 of treated culture after 90 min ([1]; E. coli RN31, peptide 8 µg/mL, 90 min, initial OD600 = 0.226 ± 0.006 at 0 min) | cell count relative to the initial cell count ([1]; E. coli RN31, peptide 8 µg/mL, 90 min vs 0 min (OD600)) | Residual iTT (sfGFP expression relative to no PrAMP) ([2]; listed as 4R-Fpr16) | Residual iTT (sfGFP expression relative to no PrAMP) ([2]; listed as Pro16 4R-Fpr (trans)) | ribosomal profile, pre-50S peak ([3]; E. coli RN31, adjusted peptide concentration 4 µg/mL)
CC[C@H](C)[C@H](NC(=O)[C@H](Cc1ccc(O)cc1)NC(=O)[C@@H](NC(=O)[C@@H]1CCCN1C(=O)[C@H](CCCNC(=N)N)NC(=O)[C@H](CC(N)=O)NC(=O)[C@H](CC(N)=O)NC(=O)[C@H](CCCN)N=C(N(C)C)N(C)C)C(C)C)C(=O)N1CCC[C@H]1C(=O)N[C@@H](CCCNC(=N)N)C(=O)N1CCC[C@H]1C(=O)N[C@@H](CCCNC(=N)N)C(=O)N1C[C@@H](F)C[C@H]1C(=O)N1CCC[C@H]1C(=O)N[C@@H](Cc1c[nH]cn1)C(=O)N1CCC[C@H]1C(=O)N[C@@H](CCCNC(=N)N)C(=O)N[C@@H](CC(C)C)C(=O)O [Api843] ({Orn(α-tetramethylguanidino)}-NNRPVYIPRPR[Pro(cis-4-F)]PHPRL-OH) | 56% | 28 ± 3.2% | yes |  |  |  |  |  | 
CC[C@H](C)[C@H](NC(=O)[C@H](Cc1ccc(O)cc1)NC(=O)[C@@H](NC(=O)[C@@H]1CCCN1C(=O)[C@H](CCCNC(=N)N)NC(=O)[C@H](CC(N)=O)NC(=O)[C@H](CC(N)=O)NC(=O)[C@H](CCCN)N=C(N(C)C)N(C)C)C(C)C)C(=O)N1C[C@H](F)C[C@H]1C(=O)N[C@@H](CCCNC(=N)N)C(=O)N1CCC[C@H]1C(=O)N[C@@H](CCCNC(=N)N)C(=O)N1CCC[C@H]1C(=O)N1CCC[C@H]1C(=O)N[C@@H](Cc1c[nH]cn1)C(=O)N1CCC[C@H]1C(=O)N[C@@H](CCCNC(=N)N)C(=O)N[C@@H](CC(C)C)C(=O)O [Api846] ({Orn(α-tetramethylguanidino)}-NNRPVYI[Pro(trans-4-F)]RPRPPHPRL-OH) | 34% | 33 ± 3.5% | no | ~ 45% |  |  |  |  | 
CC[C@H](C)[C@H](NC(=O)[C@H](Cc1ccc(O)cc1)NC(=O)[C@@H](NC(=O)[C@@H]1CCCN1C(=O)[C@H](CCCNC(=N)N)NC(=O)[C@H](CC(N)=O)NC(=O)[C@H](CC(N)=O)NC(=O)[C@H](CCCN)N=C(N(C)C)N(C)C)C(C)C)C(=O)N1CCC[C@H]1C(=O)N[C@@H](CCCNC(=N)N)C(=O)N1CCC[C@H]1C(=O)N[C@@H](CCCNC(=N)N)C(=O)N1CCC[C@H]1C(=O)N1CCC[C@H]1C(=O)N[C@@H](Cc1c[nH]cn1)C(=O)N1C[C@H](F)C[C@H]1C(=O)N[C@@H](CCCNC(=N)N)C(=O)N[C@@H](CC(C)C)C(=O)O [Api850] ({Orn(α-tetramethylguanidino)}-NNRPVYIPRPRPPH[Pro(trans-4-F)]RL-OH) | 84% |  | yes |  | 0.333 ± 0.002 | ~ 140% | 28% | 28 ± 0.7% | reduced the area of the pre-50S peak
CC[C@H](C)[C@H](NC(=O)[C@H](Cc1ccc(O)cc1)NC(=O)[C@@H](NC(=O)[C@@H]1CCCN1C(=O)[C@H](CCCNC(=N)N)NC(=O)[C@H](CC(N)=O)NC(=O)[C@H](CC(N)=O)NC(=O)[C@H](CCCN)N=C(N(C)C)N(C)C)C(C)C)C(=O)N1C[C@@H](F)C[C@H]1C(=O)N[C@@H](CCCNC(=N)N)C(=O)N1CCC[C@H]1C(=O)N[C@@H](CCCNC(=N)N)C(=O)N1CCC[C@H]1C(=O)N1CCC[C@H]1C(=O)N[C@@H](Cc1c[nH]cn1)C(=O)N1CCC[C@H]1C(=O)N[C@@H](CCCNC(=N)N)C(=O)N[C@@H](CC(C)C)C(=O)O [Api845] ({Orn(α-tetramethylguanidino)}-NNRPVYI[Pro(cis-4-F)]RPRPPHPRL-OH) | 62% | 26 ± 5.7% | yes |  |  |  |  |  | 
CC[C@H](C)[C@H](NC(=O)[C@H](Cc1ccc(O)cc1)NC(=O)[C@@H](NC(=O)[C@@H]1CCCN1C(=O)[C@H](CCCNC(=N)N)NC(=O)[C@H](CC(N)=O)NC(=O)[C@H](CC(N)=O)NC(=O)[C@H](CCCN)N=C(N(C)C)N(C)C)C(C)C)C(=O)N1CCC[C@H]1C(=O)N[C@@H](CCCNC(=N)N)C(=O)N1C[C@@H](F)C[C@H]1C(=O)N[C@@H](CCCNC(=N)N)C(=O)N1CCC[C@H]1C(=O)N1CCC[C@H]1C(=O)N[C@@H](Cc1c[nH]cn1)C(=O)N1CCC[C@H]1C(=O)N[C@@H](CCCNC(=N)N)C(=O)N[C@@H](CC(C)C)C(=O)O [Api841] ({Orn(α-tetramethylguanidino)}-NNRPVYIPR[Pro(cis-4-F)]RPPHPRL-OH) | 65% | 32 ± 0.9% | yes |  |  |  |  |  | 
